One test addresses T1, GYPC (Homo sapiens, UniProt P04921).
T1 sequence (P04921 1-128): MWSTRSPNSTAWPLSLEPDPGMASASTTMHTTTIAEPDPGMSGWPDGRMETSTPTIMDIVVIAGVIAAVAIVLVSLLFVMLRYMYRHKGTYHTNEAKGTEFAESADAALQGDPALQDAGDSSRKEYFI
The experiment in a line: nHU-MS peptide bait, prey GYPC.

The target in the next test is TMA7 (Homo sapiens, UniProt Q9Y2S6). The experiment in a line: nHU-MS peptide bait, prey TMA7.
Another test addresses GNB4 (Homo sapiens, UniProt Q9HAV0). The experiment in a line: nHU-MS peptide bait, prey GNB4.
Another test concerns the target T2, UBE2N (Homo sapiens, UniProt P61088).
T2 sequence (P61088 1-152): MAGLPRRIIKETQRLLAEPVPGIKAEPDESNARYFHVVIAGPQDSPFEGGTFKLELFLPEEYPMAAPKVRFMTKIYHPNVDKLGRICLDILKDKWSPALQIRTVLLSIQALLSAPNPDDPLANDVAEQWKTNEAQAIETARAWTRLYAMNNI
The experiment in a line: nHU-MS peptide bait, prey UBE2N.

A further test has as its target T3, EHD4 (Homo sapiens, UniProt Q9H223).
T3 sequence (Q9H223 1-541): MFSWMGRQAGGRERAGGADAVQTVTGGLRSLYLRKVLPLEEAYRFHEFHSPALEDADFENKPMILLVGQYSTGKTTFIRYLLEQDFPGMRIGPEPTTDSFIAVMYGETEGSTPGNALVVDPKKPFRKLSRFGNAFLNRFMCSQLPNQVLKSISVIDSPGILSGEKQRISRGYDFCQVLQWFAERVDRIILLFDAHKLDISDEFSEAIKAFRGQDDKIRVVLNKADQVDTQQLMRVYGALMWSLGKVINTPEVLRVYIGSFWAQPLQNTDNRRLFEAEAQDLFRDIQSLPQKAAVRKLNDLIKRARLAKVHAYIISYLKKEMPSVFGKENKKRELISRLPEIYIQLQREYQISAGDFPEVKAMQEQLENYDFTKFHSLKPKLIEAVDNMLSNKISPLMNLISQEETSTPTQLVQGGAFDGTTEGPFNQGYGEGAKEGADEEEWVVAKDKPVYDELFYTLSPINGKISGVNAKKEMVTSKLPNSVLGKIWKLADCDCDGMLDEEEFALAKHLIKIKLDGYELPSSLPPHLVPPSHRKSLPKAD
The experiment in a line: nHU-MS peptide bait, prey EHD4.

The next test deals with T4, TXNL4B (Homo sapiens, UniProt Q9NX01).
T4 sequence (Q9NX01 1-149): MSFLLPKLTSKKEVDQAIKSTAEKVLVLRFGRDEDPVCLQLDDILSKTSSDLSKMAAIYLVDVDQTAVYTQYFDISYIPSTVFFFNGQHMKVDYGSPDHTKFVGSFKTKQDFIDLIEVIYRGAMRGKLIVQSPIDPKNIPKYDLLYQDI
The experiment in a line: nHU-MS peptide bait, prey TXNL4B.

In another test the target is T5, TXNRD3 (Homo sapiens, UniProt Q86VQ6).
T5 sequence (Q86VQ6 1-643): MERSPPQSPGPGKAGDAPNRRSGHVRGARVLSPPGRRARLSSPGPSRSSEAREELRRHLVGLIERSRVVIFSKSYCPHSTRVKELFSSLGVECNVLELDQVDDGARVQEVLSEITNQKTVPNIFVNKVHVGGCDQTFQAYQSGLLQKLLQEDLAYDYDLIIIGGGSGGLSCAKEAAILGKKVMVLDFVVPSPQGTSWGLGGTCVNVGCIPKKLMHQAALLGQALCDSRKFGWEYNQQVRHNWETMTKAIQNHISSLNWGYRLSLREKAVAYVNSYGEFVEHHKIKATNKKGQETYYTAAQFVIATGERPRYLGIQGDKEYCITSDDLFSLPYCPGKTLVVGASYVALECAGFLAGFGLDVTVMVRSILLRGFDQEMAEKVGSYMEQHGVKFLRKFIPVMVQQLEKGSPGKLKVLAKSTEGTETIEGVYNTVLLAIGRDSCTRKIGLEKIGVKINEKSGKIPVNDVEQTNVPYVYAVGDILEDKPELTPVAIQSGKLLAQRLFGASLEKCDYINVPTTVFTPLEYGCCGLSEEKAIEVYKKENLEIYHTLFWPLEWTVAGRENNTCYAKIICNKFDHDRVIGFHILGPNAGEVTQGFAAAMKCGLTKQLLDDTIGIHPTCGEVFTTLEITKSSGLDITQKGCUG
The test can be described thus: nHU-MS peptide bait, prey TXNRD3.

The next test has as its target T6, ASXL2 (Homo sapiens, UniProt Q76L83).
T6 sequence (Q76L83 1-1435): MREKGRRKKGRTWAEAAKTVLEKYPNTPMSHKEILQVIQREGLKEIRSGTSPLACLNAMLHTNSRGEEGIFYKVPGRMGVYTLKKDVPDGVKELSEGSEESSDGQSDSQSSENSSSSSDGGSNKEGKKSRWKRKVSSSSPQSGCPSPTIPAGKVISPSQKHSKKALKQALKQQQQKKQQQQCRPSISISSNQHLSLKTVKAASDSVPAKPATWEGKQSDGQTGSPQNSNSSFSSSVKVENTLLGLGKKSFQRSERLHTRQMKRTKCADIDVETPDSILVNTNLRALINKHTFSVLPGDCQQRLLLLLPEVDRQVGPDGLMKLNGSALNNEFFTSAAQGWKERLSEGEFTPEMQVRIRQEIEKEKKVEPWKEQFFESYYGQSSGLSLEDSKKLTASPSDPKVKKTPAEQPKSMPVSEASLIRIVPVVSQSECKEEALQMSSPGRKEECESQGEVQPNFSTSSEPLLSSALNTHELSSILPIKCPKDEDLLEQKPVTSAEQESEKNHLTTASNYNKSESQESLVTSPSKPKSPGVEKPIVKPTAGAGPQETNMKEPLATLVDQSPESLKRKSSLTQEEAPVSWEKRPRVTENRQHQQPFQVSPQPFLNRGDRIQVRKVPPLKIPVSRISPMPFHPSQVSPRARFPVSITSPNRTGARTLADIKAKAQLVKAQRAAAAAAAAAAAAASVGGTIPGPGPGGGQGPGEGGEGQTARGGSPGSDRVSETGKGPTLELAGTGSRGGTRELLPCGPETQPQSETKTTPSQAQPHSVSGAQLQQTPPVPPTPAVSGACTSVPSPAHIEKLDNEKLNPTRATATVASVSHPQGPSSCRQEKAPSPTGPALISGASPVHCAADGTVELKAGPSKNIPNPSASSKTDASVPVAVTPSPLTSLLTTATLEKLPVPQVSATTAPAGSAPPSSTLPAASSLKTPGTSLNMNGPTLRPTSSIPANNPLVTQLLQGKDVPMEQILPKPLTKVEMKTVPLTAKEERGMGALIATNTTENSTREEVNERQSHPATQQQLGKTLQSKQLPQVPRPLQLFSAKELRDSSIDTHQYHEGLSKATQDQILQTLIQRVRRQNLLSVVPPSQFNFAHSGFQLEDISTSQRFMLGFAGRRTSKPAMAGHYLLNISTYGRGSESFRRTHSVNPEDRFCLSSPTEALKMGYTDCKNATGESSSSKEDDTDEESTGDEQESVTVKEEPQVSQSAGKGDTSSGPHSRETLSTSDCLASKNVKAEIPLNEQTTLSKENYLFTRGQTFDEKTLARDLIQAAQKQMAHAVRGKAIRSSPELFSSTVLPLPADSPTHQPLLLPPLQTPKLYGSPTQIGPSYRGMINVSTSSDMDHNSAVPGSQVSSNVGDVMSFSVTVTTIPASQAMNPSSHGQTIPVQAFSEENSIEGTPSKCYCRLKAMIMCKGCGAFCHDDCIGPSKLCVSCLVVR
The test can be described thus: nHU-MS peptide bait, prey ASXL2.

These results are taken from paper PMC12808100, “The non-catalytic DNA polymerase ε subunit is an NPF motif recognition protein” (Nature Communications, 2025).

Residues, ends and D or L forms follow the SMILES beside them.

Chain of GNB4 (Q9HAV0 2-340 limits assumed): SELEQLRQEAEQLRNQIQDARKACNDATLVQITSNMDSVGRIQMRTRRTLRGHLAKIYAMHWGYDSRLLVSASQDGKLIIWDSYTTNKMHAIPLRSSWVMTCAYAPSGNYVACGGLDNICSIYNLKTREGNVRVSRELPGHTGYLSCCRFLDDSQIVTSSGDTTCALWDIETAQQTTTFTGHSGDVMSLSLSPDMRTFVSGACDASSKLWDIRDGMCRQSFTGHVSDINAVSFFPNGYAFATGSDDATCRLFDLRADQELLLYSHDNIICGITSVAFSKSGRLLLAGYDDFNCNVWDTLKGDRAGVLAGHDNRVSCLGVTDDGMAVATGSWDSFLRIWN
Chain of GNB4 (P59768 2-68 partner limits assumed): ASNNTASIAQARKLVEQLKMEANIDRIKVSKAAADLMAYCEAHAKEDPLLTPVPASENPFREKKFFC
Chain of TMA7 (Q9Y2S6 whole entry): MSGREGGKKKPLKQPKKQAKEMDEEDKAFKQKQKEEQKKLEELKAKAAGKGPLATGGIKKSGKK

Regarding `CC(C)[C@H](NC(=O)[C@H](CCCCN)NC(=O)[C@H](Cc1ccccc1)NC(=O)[C@@H]1CCCN1C(=O)[C@H](CC(N)=O)NC(=O)[C@@H](NC(=O)[C@H](CCCNC(=N)N)NC(=O)CNC(=O)[C@H](CCC(N)=O)NC(=O)[C@H](CO)NC(=O)[C@@H](N)CO)C(C)C)C(=O)N[C@@H](CO)C(=O)N[C@@H](C)C(=O)N[C@@H](CO)C(=O)N[C@@H](CO)C(=O)N[C@@H](CCCCN)C(=O)N[C@@H](CCC(=O)O)C(=O)N1CCC[C@H]1C(=O)N[C@@H](C)C(N)=O` [WDHD1 906-924] (H-SSQGRVNPFKVSASSKEPA-NH2), the Kd was 18.6 µM at GYPC; 13.4 µM at TMA7; 12.7 µM on GNB4; 20.8 µM on UBE2N; 18.9 µM on EHD4. Also, the BI came to 0.35 at GYPC (prey GYPC, MS4_Varjosalo); 0.4275 on TMA7 (prey TMA7, MS7_Varjosalo); 0.4407 at GNB4 (prey GNB4, MS7_Varjosalo); 0.3252 at UBE2N (prey UBE2N, MS4_Varjosalo); 0.3455 at EHD4 (prey EHD4, MS4_Varjosalo).

For the compound `CC[C@H](C)[C@H](NC(=O)[C@H](CC(N)=O)NC(=O)[C@@H](NC(=O)[C@H](CCC(N)=O)NC(=O)[C@@H]1CCCN1C(=O)[C@@H](NC(=O)[C@H](CCC(N)=O)NC(=O)[C@H](CCCNC(=N)N)NC(=O)CCCCCNC(=O)CCCC[C@@H]1SC[C@@H]2NC(=O)N[C@@H]21)[C@@H](C)O)C(C)C)C(=O)N[C@@H](CC(N)=O)C(=O)N1CCC[C@H]1C(=O)N[C@@H](Cc1ccccc1)C(=O)N[C@H](C(=O)N1CCC[C@H]1C(=O)N[C@@H](CC(=O)O)C(=O)N[C@@H](CO)C(=O)N[C@@H](CC(C)C)C(=O)N[C@@H](CC(C)C)C(=O)N[C@@H](CC(C)C)C(=O)N[C@@H](Cc1c[nH]cn1)C(=O)N[C@@H](CO)C(N)=O)[C@@H](C)O` [WEE1] (HELM PEPTIDE1{[O=C1N[C@H]2[C@H](CS[C@H]2CCCCC(=O)[*:2])N1].[O=C(CCCCCN[*:1])[*:2]].R.Q.T.P.Q.V.N.I.N.P.F.T.P.D.S.L.L.L.H.S.[am]}$$$$V2.0), the Kd is 7.39 µM at TXNL4B, 6.85 µM at TXNRD3 and 5.55 µM on ASXL2. The BI is 0.575 on TXNL4B (prey TXNL4B, MS7_Varjosalo); 0.5933 at TXNRD3 (prey TXNRD3, MS7_Varjosalo); 0.643 on ASXL2 (prey ASXL2, MS7_Varjosalo). Besides, the log2FC at TXNL4B (prey TXNL4B, MS7_Varjosalo) is reported as -1.234; on TXNRD3 (prey TXNRD3, MS7_Varjosalo) it was -1.298; on ASXL2 (prey ASXL2, MS7_Varjosalo), -1.486.
